Four compounds from patent US20170334891A1, “ENHANCER OF ZESTE HOMOLOG 2 INHIBITORS” (GLAXOSMITHKLINE INTELLECTUAL PROPERTY (NO.2) LIMITED, priority 2014, published 2017) can be followed below.

Each structure is given as a SMILES string.

In the assay the target is T1, EZH2 within the PRC2 complex (Homo sapiens, UniProt Q15910).
T1 construct: FLAG; made in house; host or cells: Sf9 cells
T1 sequence (Q15910 whole entry): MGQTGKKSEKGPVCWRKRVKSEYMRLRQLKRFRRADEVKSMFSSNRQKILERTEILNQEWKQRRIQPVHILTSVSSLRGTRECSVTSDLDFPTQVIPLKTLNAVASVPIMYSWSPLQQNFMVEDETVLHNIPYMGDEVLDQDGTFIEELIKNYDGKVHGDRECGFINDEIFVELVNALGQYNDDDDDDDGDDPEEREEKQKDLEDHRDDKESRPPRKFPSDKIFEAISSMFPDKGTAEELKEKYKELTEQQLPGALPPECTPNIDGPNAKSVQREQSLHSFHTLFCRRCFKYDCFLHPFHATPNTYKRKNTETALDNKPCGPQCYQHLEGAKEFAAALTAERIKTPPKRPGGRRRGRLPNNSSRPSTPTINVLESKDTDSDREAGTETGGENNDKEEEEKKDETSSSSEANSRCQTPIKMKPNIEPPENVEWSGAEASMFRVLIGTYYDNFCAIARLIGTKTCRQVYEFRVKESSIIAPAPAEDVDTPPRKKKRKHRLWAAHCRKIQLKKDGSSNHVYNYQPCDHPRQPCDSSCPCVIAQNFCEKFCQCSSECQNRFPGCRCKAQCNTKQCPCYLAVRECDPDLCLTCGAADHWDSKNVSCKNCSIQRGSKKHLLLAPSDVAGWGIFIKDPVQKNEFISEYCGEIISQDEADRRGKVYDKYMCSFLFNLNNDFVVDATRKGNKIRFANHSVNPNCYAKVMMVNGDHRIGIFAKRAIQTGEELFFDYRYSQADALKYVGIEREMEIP
T1 sequence (O75530 whole entry partner): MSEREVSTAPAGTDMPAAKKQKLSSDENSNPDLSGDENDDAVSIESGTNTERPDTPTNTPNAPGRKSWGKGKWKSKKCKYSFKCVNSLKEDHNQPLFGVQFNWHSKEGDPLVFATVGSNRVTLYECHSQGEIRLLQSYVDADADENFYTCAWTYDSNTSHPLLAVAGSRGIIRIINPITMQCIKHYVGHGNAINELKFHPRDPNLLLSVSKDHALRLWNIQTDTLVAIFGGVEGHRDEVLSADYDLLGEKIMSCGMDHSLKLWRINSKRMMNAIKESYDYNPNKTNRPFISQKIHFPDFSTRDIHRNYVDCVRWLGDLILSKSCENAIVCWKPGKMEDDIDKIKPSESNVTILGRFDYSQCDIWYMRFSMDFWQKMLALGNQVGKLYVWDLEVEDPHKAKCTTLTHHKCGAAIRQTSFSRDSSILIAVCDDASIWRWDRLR
T1 sequence (Q15022 whole entry partner): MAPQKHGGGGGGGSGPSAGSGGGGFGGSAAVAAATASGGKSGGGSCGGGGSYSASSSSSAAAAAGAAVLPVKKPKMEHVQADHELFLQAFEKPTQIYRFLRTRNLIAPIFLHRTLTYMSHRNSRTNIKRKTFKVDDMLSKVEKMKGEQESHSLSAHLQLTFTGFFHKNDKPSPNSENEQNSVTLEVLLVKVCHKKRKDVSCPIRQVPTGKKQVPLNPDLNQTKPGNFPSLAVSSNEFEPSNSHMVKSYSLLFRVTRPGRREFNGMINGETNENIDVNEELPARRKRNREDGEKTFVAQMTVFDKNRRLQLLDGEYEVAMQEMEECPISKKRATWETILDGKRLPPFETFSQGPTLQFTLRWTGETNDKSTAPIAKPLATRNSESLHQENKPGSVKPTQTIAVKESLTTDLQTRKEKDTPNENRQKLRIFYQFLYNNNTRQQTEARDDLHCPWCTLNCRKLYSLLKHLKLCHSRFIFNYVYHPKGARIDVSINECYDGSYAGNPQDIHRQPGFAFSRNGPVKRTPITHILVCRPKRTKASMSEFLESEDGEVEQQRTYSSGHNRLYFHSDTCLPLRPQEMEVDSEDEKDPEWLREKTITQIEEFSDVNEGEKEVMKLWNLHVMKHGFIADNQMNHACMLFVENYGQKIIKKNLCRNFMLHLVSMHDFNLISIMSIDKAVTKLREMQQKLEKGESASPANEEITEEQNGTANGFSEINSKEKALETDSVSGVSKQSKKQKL
T1 sequence (Q09028 whole entry partner): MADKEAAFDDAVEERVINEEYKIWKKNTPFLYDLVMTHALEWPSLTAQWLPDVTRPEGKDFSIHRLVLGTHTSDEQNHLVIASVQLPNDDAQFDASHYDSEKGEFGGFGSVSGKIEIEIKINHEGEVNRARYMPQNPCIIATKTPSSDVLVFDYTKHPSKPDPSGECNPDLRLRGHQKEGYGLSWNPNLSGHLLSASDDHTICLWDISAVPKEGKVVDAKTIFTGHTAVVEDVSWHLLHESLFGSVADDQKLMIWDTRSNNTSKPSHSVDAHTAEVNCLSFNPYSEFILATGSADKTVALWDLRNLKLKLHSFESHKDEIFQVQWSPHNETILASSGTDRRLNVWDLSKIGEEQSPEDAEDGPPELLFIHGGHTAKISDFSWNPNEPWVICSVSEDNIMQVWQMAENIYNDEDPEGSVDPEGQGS
T1 sequence (Q6ZN18 whole entry partner): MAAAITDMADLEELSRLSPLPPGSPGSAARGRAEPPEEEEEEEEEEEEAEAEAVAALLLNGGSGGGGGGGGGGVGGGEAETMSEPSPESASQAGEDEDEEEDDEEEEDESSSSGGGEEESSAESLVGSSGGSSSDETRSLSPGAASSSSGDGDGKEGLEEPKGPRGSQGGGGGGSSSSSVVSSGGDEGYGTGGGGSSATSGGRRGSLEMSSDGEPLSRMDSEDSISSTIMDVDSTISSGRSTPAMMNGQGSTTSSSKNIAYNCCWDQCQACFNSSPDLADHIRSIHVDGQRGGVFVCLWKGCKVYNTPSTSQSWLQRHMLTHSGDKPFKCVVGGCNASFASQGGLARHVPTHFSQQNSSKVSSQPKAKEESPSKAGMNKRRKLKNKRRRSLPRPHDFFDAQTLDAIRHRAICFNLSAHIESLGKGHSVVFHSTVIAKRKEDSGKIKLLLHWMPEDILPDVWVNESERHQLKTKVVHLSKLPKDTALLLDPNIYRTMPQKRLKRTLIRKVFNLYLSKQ
Kind of assay: EZH2 methyltransferase scintillation proximity assay (SPA). The format is biochemical. The note with it: Human PRC2 5 member complex (FLAG-EZH2, EED, SUZ12, RbAp48, AEBP2), 1 nM enzyme, biotinylated histone H3K27 peptide, 3H-SAM, 60 min at room temperature. How it is done:
Compounds contained herein were evaluated for their ability to inhibit the methyltransferase activity of EZH2 within the PRC2 complex. Human PRC2 complex was prepared by co-expressing each of the 5 member proteins (FLAG-EZH2, EED, SUZ12, RbAp48, AEBP2) in Sf9 cells followed by co-purification. Enzyme activity was measured in a scintillation proximity assay (SPA) where a tritiated methyl group is transferred from 3H-SAM to a lysine residue on a biotinylated, unmethylated peptide substrate derived from histone H3. The peptides were captured on streptavidin-coated SPA beads and the resulting signal was read on a ViewLux plate reader.
• 1. Prepare 10 mM stock of compounds from solid in 100% DMSO. • 2. Set up an 11-point serial dilution (1:4 dilution, top concentration 10 mM) in 100% DMSO for each test compound in a 384 well plate leaving columns 6 and 18 for DMSO controls. • 3. Dispense 10 nL of compound from the dilution plate into reaction plates (Corning, 384-well polystyrene NBS, Cat#3673).
Prepare the following solutions: • 1. 1× Base Buffer, 50 mM Tris-HCl, pH 8, 2 mM MgCl2: Per 1 L of base buffer, combine 1 M Tris-HCl, pH 8 (50 mL), 1 M MgCl2 (2 mL), and distilled water (948 mL). • 2. 1× Assay Buffer: Per 10 mL of 1× Assay Buffer, combine 1× Base Buffer (9.96 mL), 1 M DTT (40 uL), and 10% Tween-20 (1 uL) to provide a final concentration of 50 mM Tris-HCl, pH 8, 2 mM MgCl2, 4 mM DTT, 0.001% Tween-20. • 3. 2× Enzyme Solution: Per 10 mL of 2× Enzyme Solution, combine 1× Assay Buffer (9.99 mL) and 3.24 uM EZH2 5 member complex (6.17 uL) to provide a final enzyme concentration of 1 nM. • 4. SPA Bead Solution: Per 1 mL of SPA Bead Solution, combine Streptavidin coated SPA beads (PerkinElmer, Cat# RPNQ0261, 40 mg) and 1× Assay Buffer (1 mL) to provide a working concentration of 40 mg/mL. • 5. 2× Substrate Solution: Per 10 mL of 2× Substrate Solution, combine 40 mg/mL SPA Bead Solution (375 uL), 1 mM biotinylated histone H3K27 peptide (200 uL), 12.5 uM 3H-SAM (240 uL; 1 mCi/mL), 1 mM cold SAM (57 uL), and 1× Assay Buffer (9.13 mL) to provide a final concentration of 0.75 mg/mL SPA Bead Solution, 10 uM biotinylated histone H3K27 peptide, 0.15 uM 3H-SAM (˜12 uCi/mL 3H-SAM), and 2.85 uM cold SAM. • 6. 2.67× Quench Solution: Per 10 mL of 2.67× Quench Solution, combine 1× Assay Buffer (9.73 mL) and 10 mM cold SAM (267 uL) to provide a final concentration of 100 uM cold SAM.
• 1. Stamp 10 nL/well of 1000× Compound to test wells (as noted above). • 2. Stamp 10 nL/well of 100% DMSO to columns 6 & 18 (high and low controls, respectively).
• 1. Dispense 5 uL/well of 1× Assay Buffer to column 18 (low control reactions). • 2. Dispense 5 uL/well of 2× Substrate Solution to columns 1-24 (note: substrate solution should be mixed to ensure homogeneous bead suspension before dispensing into matrix reservoir). • 3. Dispense 5 uL/well of 2× Enzyme Solution to columns 1-17, 19-24. • 4. Incubate the reaction for 60 min at room temperature.
• 1. Dispense 6 uL/well of the 2.67× Quench Solution to columns 1-24. • 2. Seal assay plates and spin for ˜1 min at 500 rpm. • 3. Dark adapt plates in the ViewLux instrument for 15-60 min.
• 1. Read the assay plates on the Viewlux Plate Reader utilizing the 613 nm emission filter or clear filter (300 s exposure). Reagent addition can be done manually or with automated liquid handler.
Percent inhibition was calculated relative to the DMSO control for each compound concentration and the resulting values were fit using standard IC50 fitting parameters within the ABASE data fitting software package.
The IC50 values of <10 nM indicate that the activity of compound was approaching the limit of detection in the assay. Repeating the assay run(s) may result in somewhat different IC50 values.
(In general: SPA uses beads or plates that emit light when radiolabelled molecules are held near them.)
What is called IC50 is the concentration that inhibits the measured activity by half. Take `CCC(=C1CCN(N(C)C)CC1)c1scc(C(=O)NCc2c(C)cc(C)[nH]c2=O)c1C` [Example 7, N-((4,6-Dimethyl-2-oxo-1,2-dihydropyridin-3-yl)methyl)-5-(1-(1-(dimethylamino)piperidin-4-ylidene)propyl)-4-methylthiophene-3-carboxamide]: the half-inhibitory concentration (IC50) was found to be 20 nM. That is a double-digit nanomolar value. Regarding `CCC(c1scc(C(=O)NCc2c(C)cc(C)[nH]c2=O)c1C)C1CCN(CC(F)F)CC1` (racemic) [Example 14, 5-(1-(1-(2,2-Difluoroethyl)piperidin-4-yl)propyl)-N-((4,6-dimethyl-2-oxo-1,2-dihydropyridin-3-yl)methyl)-4-methylthiophene-3-carboxamide], the IC50 turned out to be 40 nM. Next, `CCC(=C1CCC(O)CC1)c1scc(C(=O)NCc2c(C)cc(C)[nH]c2=O)c1C` (stereo not shown) [Example 10, N-((4,6-Dimethyl-2-oxo-1,2-dihydropyridin-3-yl)methyl)-5-(1-(4-hydroxycyclohexylidene)propyl)-4-methylthiophene-3-carboxamide]: at most 10 nM; `CC[C@@H](c1scc(C(=O)NCc2c(C)cc(C)[nH]c2=O)c1C)C1CCN(CC(C)(F)F)CC1` [Example 4, (R)-5-(1-(1-(2,2-Difluoropropyl)piperidin-4-yl)propyl)-N-((4,6-dimethyl-2-oxo-1,2-dihydropyridin-3-yl)methyl)-4-methylthiophene-3-carboxamide]: 20 nM.
